Results: patent US11155820B2, “Target of VGSC β3 protein for prevention, treatment and diagnostic detection of cancers” (SHENYANG PHARMACEUTICAL UNIVERSITY, priority 2014, dated 2021)

Legend:
[1] = tested on: hepatoma cell lines HepG2; assay: MTT assay of HepG2 cell proliferation after AGAP; assay type: cell-based; settings: HepG2, 40 μM, 48 h incubation, control proteins
Procedure: The cell proliferation was measured by MTT assay:took the cells in good growth condition and in logarithmic growth phase, digested with conventional trypsin, and pipetted into a single cell suspension, after counting the blood cell with blood counting chamber, the concentration was adjusted to 10^5 cells/ml (HepG2 cells), then were inoculated into 96-well plates at 100 μl per well, while set the blank hole (only added 100 μl of culture medium, without cells); cultured in 5% CO2 incubator at 37° C. for 24 h, each well was added 0.5 mg/ml MTT, 100 μl, then continued to culture for 4 h, the supernatant was discarded and 150 μl of DMSO was added to each well. The mixture was incubated at low speed for 10 min on a micro shaker, and the absorbance of each well was measured at 490 nm using a microplate reader after the crystals were fully dissolved.
(§1) Analgesic antitumoral peptide (AGAP) at […] different concentrations (0, 5, 10, 15, 20, 25, 30, 35 and 40 μM) were incubated with hepatoma cell lines HepG2 (96 well plates, 10^4 cells/well, 24 h later, AGAP was administered at different concentrations as described above, at least 3 wells were repeated for each concentration) for 48 h, the amount of the VGSC β3 subunit expressed was then detected by Western blotting using the antibody in I.10. The cell proliferation level was measured using the MTT method.

[2] = tested on: VGSC β3 subunit; assay: Western blotting of VGSC β3 subunit in HepG2 cells after AGAP; assay type: cell-based, human; settings: HepG2, 40 μM, 48 h incubation, control proteins
Procedure: as §1

Row | Substance | effect on cell proliferation [1] | effect on the expression of the VGSC β3 subunit [2]
1 | bovine serum albumin | nor did it affect cell proliferation | no effect
2 | cytochrome C | nor did it affect cell proliferation | no effect
